The record followed here is patent US20080112992A1, “METHOD FOR CONTROLLING THE APPLICATION OF AN INSECTICIDE AND COMPOSITION THEREOF” (FLIT.S.A., priority 2001, published 2008).

The structures appear in SMILES notation.

This data set is described as follows: Colour change time after spraying on surfaces and drying in air. The class given is physicochemical. The method, then:
This composition of a pH of about 7.0 and of a yellow colour was applied by spraying to various kinds of surfaces, such as wood, painted wood, painted walls, ceramic tile, plastic (polyethylene), glass and stainless steel.
After about 40 minutes of exposure to air (including carbon dioxide), the composition was dried and the yellow colour disappeared.
Other levels of 4-nitrophenol were tested, and it was shown that with 0.05 wt % the yellow colour was somewhat faint but with a shorter colour changing time (about 25 min.), whereas with highest content, i.e. 0.5 resp. 1.0%, the colour change takes more time, i.e. 70 resp. 120 min.
Phenolphthalein was also tested at levels of 0.01 to 1.0 wt %, which all gave acceptable results and a colour change of about 40 min. The pH of the composition was initially adjusted to 9.4 using triethanolamine.

`O=[N+]([O-])c1ccc(O)cc1` [4-nitrophenol]: under “0.05 wt % 4-nitrophenol in the composition, yellow colour somewhat faint”, the colour changing time entry is listed as “about 25 min”. The molecule further yielded a colour change time (0.5 % 4-nitrophenol in the composition) of 70 min and a colour change time (1.0 % 4-nitrophenol in the composition) of 120 min.
In the case of `O=C1OC(c2ccc(O)cc2)(c2ccc(O)cc2)c2ccccc21` [Phenolphthalein, phenolphthalein], the colour change time result (phenolphthalein at 0.01 to 1.0 wt %, pH initially adjusted to 9.4 using triethanolamine) is “about 40 min”.
